Earlier results, collected in patent publication US8450455B2, “cRGD peptide derivative and its manufacture, and implant having a coating containing a cRGD peptide derivative” (Biotronik AG, priority 2010, dated 2013).

Legend:
[1] = 1-octanol/water, 25° C.
integrin ανβ3 = integrin ανβ3 (Homo sapiens, UniProt P05106+P06756); details: integrin expressed by tumor cells
Sequence of integrin ανβ3 (P06756 31-889 limits assumed): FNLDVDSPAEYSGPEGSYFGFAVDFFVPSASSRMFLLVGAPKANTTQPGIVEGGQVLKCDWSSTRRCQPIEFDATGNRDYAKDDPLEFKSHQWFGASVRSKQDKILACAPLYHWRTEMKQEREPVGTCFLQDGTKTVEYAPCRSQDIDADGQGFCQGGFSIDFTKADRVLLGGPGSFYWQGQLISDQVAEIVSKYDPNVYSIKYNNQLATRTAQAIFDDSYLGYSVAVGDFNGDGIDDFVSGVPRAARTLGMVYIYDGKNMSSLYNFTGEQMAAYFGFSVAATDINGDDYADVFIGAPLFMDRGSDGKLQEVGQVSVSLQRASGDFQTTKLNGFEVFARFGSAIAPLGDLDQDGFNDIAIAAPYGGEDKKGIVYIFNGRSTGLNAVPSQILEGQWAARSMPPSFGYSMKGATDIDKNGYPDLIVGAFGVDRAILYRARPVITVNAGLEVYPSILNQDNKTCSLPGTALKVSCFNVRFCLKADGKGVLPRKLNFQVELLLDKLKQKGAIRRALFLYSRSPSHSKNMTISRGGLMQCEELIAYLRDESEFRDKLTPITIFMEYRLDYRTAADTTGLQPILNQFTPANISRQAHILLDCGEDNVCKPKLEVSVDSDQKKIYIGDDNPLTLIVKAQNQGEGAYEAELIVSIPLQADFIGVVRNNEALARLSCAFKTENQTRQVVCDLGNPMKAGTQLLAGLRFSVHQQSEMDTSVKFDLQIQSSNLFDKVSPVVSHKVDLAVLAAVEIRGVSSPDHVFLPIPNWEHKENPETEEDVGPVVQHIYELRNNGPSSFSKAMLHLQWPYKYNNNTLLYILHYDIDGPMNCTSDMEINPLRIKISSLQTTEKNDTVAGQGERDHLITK
Sequence of integrin ανβ3 (P06756 891-1048 partner limits assumed): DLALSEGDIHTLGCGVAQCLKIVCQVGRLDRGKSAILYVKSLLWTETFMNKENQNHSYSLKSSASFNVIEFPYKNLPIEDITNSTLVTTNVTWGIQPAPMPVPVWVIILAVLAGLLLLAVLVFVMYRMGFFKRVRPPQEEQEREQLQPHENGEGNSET
Sequence of integrin ανβ3 (P05106 27-788): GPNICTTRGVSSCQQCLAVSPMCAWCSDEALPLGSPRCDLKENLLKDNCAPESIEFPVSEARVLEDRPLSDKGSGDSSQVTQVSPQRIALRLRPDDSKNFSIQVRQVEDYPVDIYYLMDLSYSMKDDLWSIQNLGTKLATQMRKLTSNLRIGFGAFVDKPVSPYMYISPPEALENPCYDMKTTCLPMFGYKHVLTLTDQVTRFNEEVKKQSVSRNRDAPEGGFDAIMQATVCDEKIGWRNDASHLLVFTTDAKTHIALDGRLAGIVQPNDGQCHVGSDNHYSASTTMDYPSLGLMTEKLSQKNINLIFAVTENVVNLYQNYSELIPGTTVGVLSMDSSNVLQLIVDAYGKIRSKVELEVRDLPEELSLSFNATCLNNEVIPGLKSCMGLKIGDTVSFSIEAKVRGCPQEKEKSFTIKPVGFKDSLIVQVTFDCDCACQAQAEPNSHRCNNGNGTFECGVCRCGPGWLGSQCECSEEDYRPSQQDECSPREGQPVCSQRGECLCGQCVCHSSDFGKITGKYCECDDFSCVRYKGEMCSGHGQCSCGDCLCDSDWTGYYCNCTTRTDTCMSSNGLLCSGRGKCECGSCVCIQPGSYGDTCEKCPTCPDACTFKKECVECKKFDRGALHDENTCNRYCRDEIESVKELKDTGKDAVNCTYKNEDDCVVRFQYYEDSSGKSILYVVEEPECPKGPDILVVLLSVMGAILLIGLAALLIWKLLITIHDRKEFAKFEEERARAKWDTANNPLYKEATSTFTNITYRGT

Compound | logP [1] | inhibition of integrin ανβ3 (integrin ανβ3)
CCCCCCCN [1-aminoheptane] | 2.57 | –
c(RGDfV) | – | well-inhibited
